Literature values, collected in publication PMC7395068, “The evolution of strategies to minimise the risk of human drug-induced liver injury (DILI) in drug discovery and development” (Archives of Toxicology, 2020).
Counter-ions that a name gives are not always drawn. Like-named read-outs stand apart in the source and are kept apart here.

How the values were obtained:
[1] = tested on: THLE or HepG2 cells, isolated mitochondria, BSEP; settings: cited from earlier work
[2] = cited from earlier work
[3] = cited from earlier work; remark: listed apart in the source
human hepatocytes = settings: cited from earlier work; for Structural based (HCI), In vitro Assay: human hepatocyte imaging
[4] = tested on: primary human hepatocytes, NIH3T3 fibroblasts, BSEP, CYP3A4; settings: In vitro Assay; ref Schadt 2015; cited from earlier work

Compound	Partition Hybrid HRM Score ([1]; In vitro Assay, ref Aleo 2019)	Ro2 Hybrid HRM Score ([1]; In vitro Assay, ref Aleo 2019)	In vivo DILI ([3]; ref Aleo 2019)	Structural based (HCI) (human hepatocytes; In vitro Assay, ref Xu 2008)	DILI +VE (5-8), DILI -VE (-4) ([2]; ref Chen 2016)	DILI severity category ([2]; ref Chen 2016)	other results
Nc1ccc(C(=O)O)c(O)c1 [4-aminosalicylic acid]							Partition Hybrid HRM Score [1]: -VE; Ro2 Hybrid HRM Score [1]: -VE; DILI +VE (5-8), DILI -VE (-4) ([2]; in vivo): +VE; DILI severity category ([2]; in vivo): vMost-DILI-Concern
CCOC(=O)Nc1ccc(NCc2ccc(F)cc2)nc1N [Flupirtine (Kv7 hepatotoxic@400)]	+VE	+VE	+VE				
O=C(Nc1cccc2c(=O)cc(-c3nnn[nH]3)oc12)c1ccc(OCCCCc2ccccc2)cc1 [Pranlukast]	+VE	+VE	+VE				
CC(=O)Nc1nnc(S(N)(=O)=O)s1 [acetazolamide]				-VE			
Nc1ncnc2c1ncn2[C@@H]1O[C@H](CO)[C@@H](O)[C@H]1O [adenosine]				-VE			
Nc1ccc(C(=O)O)cc1 [aminobenzoate potassium]				-VE			
COc1cc(NS(C)(=O)=O)ccc1Nc1c2ccccc2nc2ccccc12 [amsacrine]				+VE			
CCOC(=O)[C@H](CCc1ccccc1)N[C@H]1CCc2ccccc2N(CC(=O)O)C1=O [benazepril]				-VE			
CCc1oc2ccccc2c1C(=O)c1ccc(O)cc1 [benzarone]	+VE	+VE	+VE		+VE	vMost-DILI-Concern	
CCc1oc2ccccc2c1C(=O)c1cc(I)c(O)c(I)c1 [benziodarone]	+VE	+VE	+VE		+VE	vMost-DILI-Concern	
CC(NC(C)(C)C)C(=O)c1cccc(Cl)c1 (centres unmarked) [bupropion]				-VE			
CC(C)(CO)[C@@H](O)C(=O)NCCC(=O)O [calcium pantothenate]				-VE			
CCOc1nc2cccc(C(=O)O)c2n1Cc1ccc(-c2ccccc2-c2nnn[nH]2)cc1 [candesartan]	-VE	-VE	+VE		+VE	vLess-DILI-Concern	
CN1CCC[C@@H]1CCO[C@](C)(c1ccccc1)c1ccc(Cl)cc1 [clemastine]	-VE	-VE	-VE		-VE	vNo-DILI-Concern	In vivo DILI ([3]; […]): -VE
C#C[C@]1(O)CC[C@H]2[C@@H]3CCC4=Cc5oncc5C[C@]4(C)[C@H]3CC[C@@]21C [danazol]							Structural based (HCI) (human hepatocytes): -VE
O=c1[nH]cnc2c1ncn2[C@H]1CC[C@@H](CO)O1 [didanosine]				-VE			
CN1C[C@H](C(=O)N[C@]2(C)O[C@@]3(O)[C@@H]4CCCN4C(=O)[C@H](Cc4ccccc4)N3C2=O)C[C@@H]2c3cccc4[nH]cc(c34)C[C@H]21 [dihydroergotamine]			-VE		-VE	vNo-DILI-Concern	Partition Hybrid HRM Score [1]: -VE; Ro2 Hybrid HRM Score [1]: -VE
NC(N)=Nc1nc(CSCCN/C=N/S(=O)(=O)c2ccc(Br)cc2)cs1 [ebrotidine]	+VE	+VE	+VE		+VE	vMost-DILI-Concern	
CC[N+](C)(C)c1cccc(O)c1 [edrophonium chloride]							Structural based (HCI) (human hepatocytes): -VE
COC(=O)CCc1ccc(OCC(O)CNC(C)C)cc1 (centres unmarked) [esmolol]	+VE	-VE	-VE		-VE	vNo-DILI-Concern	
C[C@]12CC[C@@H]3c4ccc(O)cc4CC[C@H]3[C@@H]1CC[C@@H]2O [estradiol]							Partition Hybrid HRM Score [1]: -VE; Ro2 Hybrid HRM Score [1]: -VE; DILI +VE (5-8), DILI -VE (-4) ([2]; in vivo): +VE; DILI severity category ([2]; in vivo): vLess-DILI-Concern
C#C[C@]1(OC(C)=O)CC[C@H]2[C@@H]3CCC4=C[C@@H](OC(C)=O)CC[C@@H]4[C@H]3CC[C@@]21C [ethynodiol diacetate]				-VE			
Cc1nc(-c2ccc(OCC(C)C)c(C#N)c2)sc1C(=O)O [febuxostat]	+VE	+VE	+VE		+VE	vMost-DILI-Concern	
O=C(COc1ccc(Cl)cc1)N1CCN(Cc2ccc3c(c2)OCO3)CC1 [fipexide]	+VE	+VE	+VE		+VE	vMost-DILI-Concern	

Compound	Partition Hybrid HRM Score ([1]; In vitro Assay, ref Aleo 2019)	Ro2 Hybrid HRM Score ([1]; In vitro Assay, ref Aleo 2019)	In vivo DILI ([3]; ref Aleo 2019)	Structural based (HCI) (human hepatocytes; In vitro Assay, ref Xu 2008)	DILI +VE (5-8), DILI -VE (-4) ([2]; ref Chen 2016)	DILI severity category ([2]; ref Chen 2016)	other results
Nc1nc(=O)[nH]cc1F [flucytosine]				+VE			
COCCCC/C(=N\OCCN)c1ccc(C(F)(F)F)cc1 [fluvoxamine]							Structural based (HCI) (human hepatocytes): -VE
Nc1nc2ncc(CNc3ccc(C(=O)N[C@@H](CCC(=O)O)C(=O)O)cc3)nc2c(=O)[nH]1 [folate]				-VE			
CC[N+](CC)(CC)CCOc1cccc(OCC[N+](CC)(CC)CC)c1OCC[N+](CC)(CC)CC [gallamine triethiodide]							Structural based (HCI), In vitro Assay (human hepatocytes; ref Xu 2008): -VE
NC[C@H]1O[C@H](O[C@H]2[C@H](O)[C@@H](O[C@H]3O[C@H](CO)[C@@H](O)[C@H](N)[C@H]3O)[C@H](N)C[C@@H]2N)[C@H](O)[C@@H](O)[C@@H]1O [kanamycin sulfate]				-VE			
N=C(N)NCCC[C@H](N)C(=O)O [l-arginine]				-VE			
C[C@H](CCC(=O)O)[C@H]1CC[C@H]2[C@@H]3CC[C@@H]4C[C@H](O)CC[C@]4(C)[C@H]3CC[C@]12C [lithocholic acid]							Structural based (HCI), In vitro Assay (human hepatocytes; ref Xu 2008): -VE
CCn1cc(C(=O)O)c(=O)c2cc(F)c(N3CCNC(C)C3)c(F)c21 (centres unmarked) [lomefloxacin]				-VE			
CCCNS(=O)(=O)Nc1ncnc(OCCOc2ncc(Br)cn2)c1-c1ccc(Br)cc1 [macitentan]	+VE	+VE	+VE				
O=C(O)/C=C\C(=O)O [maleic acid]				-VE			
COC(=O)Nc1nc2ccc(C(=O)c3ccccc3)cc2[nH]1 [mebendazole]				+VE			
COc1cccc(OC)c1C(=O)N[C@@H]1C(=O)N2[C@@H]1SC(C)(C)[C@@H]2C(=O)O [methicillin sodium]							Structural based (HCI), In vitro Assay (human hepatocytes; ref Xu 2008): -VE
CC[C@@H](CO)NC(=O)[C@@H]1C=C2c3cccc4[nH]cc(c34)C[C@H]2N(C)C1 [methylergonovine maleate]							Structural based (HCI), In vitro Assay (human hepatocytes; ref Xu 2008): -VE
Cc1nc2n(c(=O)c1CCN1CCC(c3noc4cc(F)ccc34)CC1)CCCC2O (centres unmarked) [paliperidone]	-VE	-VE	-VE		-VE	vNo-DILI-Concern	
Cn1c(=O)c2[nH]c(Br)nc2n(C)c1=O [pamabrom]	-VE	-VE	-VE		-VE	vNo-DILI-Concern	
NCCC(O)(P(=O)(O)O)P(=O)(O)O [pamidronate]				-VE			
CC(C(=O)O)c1ccc(N2CC=CC2)c(Cl)c1 (centres unmarked) [pirprofen]	+VE	-VE	+VE		+VE	vMost-DILI-Concern	In vivo DILI ([3]; […]): +VE
CNCCCC1c2ccccc2C=Cc2ccccc21 [protriptyline]	-VE	-VE	-VE		-VE	vNo-DILI-Concern	Cellular toxicity (3T3 cells) [4]: -VE; Combined Assay [4]: +VE; GSH adduct HML [4]: -VE; Hepatocyte cellular toxicity [4]: -VE; MitoTox 3T3 [4]: +VE; TDI CYP3A4 [4]: -VE; hBSEP inhibition [4]: -VE; In vivo DILI ([3]; ref Schadt 2015): -VE
CCOc1ccccc1OCCN[C@H](C)Cc1ccc(OC)c(S(N)(=O)=O)c1 [tamsulosin]	-VE	-VE	+VE		+VE	vLess-DILI-Concern	Cellular toxicity (3T3 cells) [4]: -VE; Combined Assay [4]: -VE; GSH adduct HML [4]: -VE; Hepatocyte cellular toxicity [4]: -VE; MitoTox 3T3 [4]: -VE; TDI CYP3A4 [4]: -VE; hBSEP inhibition [4]: -VE; In vivo DILI ([3]; ref Schadt 2015): -VE
Cc1nc(C)c2c(n1)N(Cc1ccc(-c3ccccc3-c3nnn[nH]3)cc1)C(=O)CC2 [tasosartan]	+VE	+VE					Cellular toxicity (3T3 cells) [4]: -VE; Combined Assay [4]: +VE; GSH adduct HML [4]: -VE; Hepatocyte cellular toxicity [4]: +VE; MitoTox 3T3 [4]: -VE; TDI CYP3A4 [4]: -VE; hBSEP inhibition [4]: +VE
O=C(O)COc1ccc(C(=O)c2cccs2)c(Cl)c1Cl [ticrynafen]	+VE	+VE	+VE				
OC(CCN1CCCCC1)(c1ccccc1)C1CCCCC1 (centres unmarked) [trihexyphenidyl]	-VE	-VE	-VE		-VE	vNo-DILI-Concern	
CCCCC(=O)N(Cc1ccc(-c2ccccc2-c2nnn[nH]2)cc1)[C@H](C(=O)O)C(C)C [valsartan]							Ro2 Hybrid HRM Score [1]: +VE; DILI +VE (5-8), DILI -VE (-4) ([2]; in vivo): +VE; DILI severity category ([2]; in vivo): vLess-DILI-Concern
